From patent publication US20260042834A1, “ANTI-CORTICOTROPIN-RELEASING HORMONE ANTIBODIES AND POLYCYSTIC OVARY SYNDROME” (HBM ALPHA THERAPEUTICS, INC., priority 2022, published 2026) come the findings set out here.

In this experiment the test system is human CRHR1. Kind of experiment: CRH-induced luciferase reporter blocking assay, CHO-CRE-hCRHR1 cells. It counts as cell-based. As to conditions: CHO-CRE-hCRHR1 Clone 11, data not shown. The protocol:
To create CHO-CRE-hCRHR1, -hCRHR2, -mCRHR1, and -mCRHR2 reporter cell lines, pcDNA3.1-hCRHR1, -hCRHR2, -mCRHR1, and -mCRHR2 were introduced into CHO-CRE cells established above by electroporation as described above. Selection antibiotics hygromycin at 500 μg/ml and G418 at 1,000 μg/ml were employed. Individual established stable cell lines were characterized by both CRH and forskolin stimulation.
Activated GPCR proteins increase production of the intracellular cAMP.
Blocking CRHR1 by small molecules or neutralization of CRH peptide can reduce luciferase expression if the CRH-CRHR1 system works in CHO-CRE-hCRHR1 cells.
50 μl of 4× serially diluted antibodies was added (8 points, 1/4 diluted by growth medium) to plates containing CHO-CRE-hCRHR1 cells, and 50 μl of 4×CRH (4× is 2 nM, final is 0.5 nM) was added. Similarly, 4×CRH (4× is 0.4 nM, final is 0.1 nM) was added to CHO-CRE-hCRHR2 cells and CHO-CRE-mCRHR1 cells, and 4×CRH (4× is 20 nM, final is 5 nM) was added to CHO-CRE-mCRHR2 cells. Next, plates were incubated 4-6 hours at 37° C. in a CO2 incubator. 60 μl of culture medium was removed, to which was added 60 μl of Bio-Glo luciferase, followed by incubation for 10 min at RT. Plates were read in a luciferase plate reader (EnVision, PerkinElmer).
On the technique in general: In a reporter assay the amount or activity of a reporter protein is the signal.

Structures are written as SMILES.

As for `CCCCN(CC)c1nc(C)nc2c1c(C)c(C)n2-c1c(C)cc(C)cc1C` [Antalarmin, reference compound], the CRH-mediated luciferase expression entry was “blocked”.
